Laboratory results published in patent US20220144913A1, “PERSONALIZED AND TIMED RELEASE OF BIOMOLECULES” (The General Hospital Corporation, priority 2019, published 2022).
Entries after “also recorded” stand apart in the source; their conditions may differ. Like-named read-outs stand apart in the source and are kept apart here.

Assays:
NFkB = assay: NFkB-GLuc reporter stimulation in HepG2 hepatocytes; type: cell-based; settings: two doses of stimulant; media sampled after 12 hours
Description: HepG2 hepatocytes were engineered with the NFkB-GLuc construct and stimulated with either inflammatory LPS or IL-1b at two different doses.

[1] = in vivo; cited from earlier work
[2] = in vivo; cited from earlier work; remark: listed apart in the source
[3] = test system: circadian clocks of Jurkat human leukemic T-cells; assay: KL001 disruption of circadian clock driven GLUC secretion, continuous flow; type: cell-based; settings: 20 μM KL001 for 24 hours before dexamethasone synchronization
Protocol: Luminescence was recorded by the device as relative luminescence units (RLU). Continuous monitoring of plasma luciferase from mice is described in a separate section below. To monitor continuous secretion of luciferase from cells in vitro over time, cells were seeded onto a custom-made constant flow cell culture and collection device. For each experiment, 16×10^6 cells in approximately 2 ml of media were injected into a tube-like bag made from air permeable material (Rogers Corporation HT-6240 Transparent 0.010″) with approximate dimensions of 20 cm in length and 0.6 cm in diameter. We have previously shown that vessels made from this material are optimal for the expansion of human T-cells (Li et al. 2018). Silicone tubing (Platinum LS14 Masterflex cat #96410-14) was used to connect the cell containing vessel to media filled syringes operated by a PHD 2000 syringe pump (Harvard Apparatus) and to a Biologic Biofrac fraction collector (Biorad). Cells were allowed to settle for 3-4 hours prior to flowing media at 3.8 ml/hour. […] For circadian experiments, cells were synchronized with 10 μM dexamethasone (Sigma cat #D4902) for 30 minutes, washed 3 times with PBS and seeded onto a continuous flow vessel either immediately or after a 24-hour incubation. […]

DS-1 cells = assay: IL-6-dependent proliferation of DS-1 cells in sGP130 conditioned media; type: cell-based; settings: conditioned media with secreted sGP130 from cells engineered with EF1α-sGP130
Description: Media from cells engineered with EF1a-sGP130 constructs was sampled, along with cell lysate, showing that measurable protein levels increase over time (FIG. 15A).
Media from cells engineered with EF1α-sGP130 constructs was sampled, along with cell lysate, showing that measurable protein levels increase over time (FIG. 15A).

Molecule: bacterial lipopolysaccharide [LPS]
- relative GLuc signal (NFkB): increased dose dependently

Molecule: parathyroid hormone [PTH]
- half-life [1]: around 5 minutes

Molecule: glucagon-like petide-1 (HAEGTFTSDVSSYLEGQAAKEEFIIAWLVKGRG; listed as Homo sapiens) [GLP1]
- half-life [2]: 30 min

Molecule: CS(=O)(=O)N(Cc1ccco1)CC(O)Cn1c2ccccc2c2ccccc21 (stereo not shown) [KL001]
- effect on dynamic nature of Circa2 driven GLUC secretion ([3]; stable Jurkat Circa2-GLUC cells): severely disrupting the dynamic nature; also recorded: abolishes dynamic nature
- effect on EF1α driven GLUC secretion ([3]; stable Jurkat EF1α-GLUC cells): little to no effect

Molecule: IL-1b: cytokine stimulant acting on a different response element (MAPK)
- relative GLuc signal (NFkB): not stimulated

B1: sGP130: soluble GP130 secreted from cells engineered with EF1α-sGP130 constructs; inhibits IL-6 signaling (protein)
chain: QLLEPCGYIYPEFPVVQRGSNFTAICVLKEACLQHYYVNASYIVWKTNHAAVPREQVTVINRTTSSVTFTDVVLPSVQLTCNILSFGQIEQNVYGVTMLSGFPPDKPTNLTCIVNEGKNMLCQWDPGRETYLETNYTLKSEWATEKFPDCQSKHGTSCMVSYMPTYYVNIEVWVEAENALGKVSSESINFDPVDKVKPTPPYNLSVTNSEELSSILKLSWVSSGLGGLLDLKSDIQYRTKDASTWIQVPLEDTMSPRTSFTVQDLKPFTEYVFRIRSIKDSGKGYWSDWSEEASGTTYEDRPSRPPSFWYKTNPSHGQEYRSVRLIWKALPLSEANGKILDYEVILTQSKSVSQTYTVTGTELTVNLTNDRYVASLAARNKVGKSAAAVLTIPSPHVTAAYSVVNLKAFPKDNLLWVEWTPPPKPVSKYILEWCVLSENAPCVEDWQQEDATVNRTHLRGRLLESKCYQITVTPVFATGPGGSESLKAYLKQAAPARGPTVRTKKVGKNEAVLAWDQIPVDDQNGFIRNYSISYRTSVGKEMVVHVDSSHTEYTLSSLSSDTLYMVRMAAYTDEGGKDGPEFTFTTPKFAQGEIE
- proliferation of DS-1 cells (DS-1 cells): proliferation is suppressed; also recorded: suppress IL-6-dependent proliferation
